Read-outs that look alike come from different tables or passages of the source.

Results on 14 compounds are retold here after patent US11655235B2, “Pyrrolidine and piperidine compounds” (YUHAN CORPORATION, priority 2019, dated 2023).

Common to all, as to assay type: biochemical
One assay deals with DPP4 (Homo sapiens, UniProt P27487). Kind of assay: DPP4 inhibition, fluorogenic substrate H-Gly-Pro-AMC. The following applies: for inhibition at 1 µM: read-out: hDPP4 inhibition % at 1 μM. Also noted: purchased R&D Systems.
A further assay has as its target T1, Recombinant human FAP (Homo sapiens, UniProt Q12884).
T1 construct: purchased R&D systems
T1 sequence (Q12884 1-760): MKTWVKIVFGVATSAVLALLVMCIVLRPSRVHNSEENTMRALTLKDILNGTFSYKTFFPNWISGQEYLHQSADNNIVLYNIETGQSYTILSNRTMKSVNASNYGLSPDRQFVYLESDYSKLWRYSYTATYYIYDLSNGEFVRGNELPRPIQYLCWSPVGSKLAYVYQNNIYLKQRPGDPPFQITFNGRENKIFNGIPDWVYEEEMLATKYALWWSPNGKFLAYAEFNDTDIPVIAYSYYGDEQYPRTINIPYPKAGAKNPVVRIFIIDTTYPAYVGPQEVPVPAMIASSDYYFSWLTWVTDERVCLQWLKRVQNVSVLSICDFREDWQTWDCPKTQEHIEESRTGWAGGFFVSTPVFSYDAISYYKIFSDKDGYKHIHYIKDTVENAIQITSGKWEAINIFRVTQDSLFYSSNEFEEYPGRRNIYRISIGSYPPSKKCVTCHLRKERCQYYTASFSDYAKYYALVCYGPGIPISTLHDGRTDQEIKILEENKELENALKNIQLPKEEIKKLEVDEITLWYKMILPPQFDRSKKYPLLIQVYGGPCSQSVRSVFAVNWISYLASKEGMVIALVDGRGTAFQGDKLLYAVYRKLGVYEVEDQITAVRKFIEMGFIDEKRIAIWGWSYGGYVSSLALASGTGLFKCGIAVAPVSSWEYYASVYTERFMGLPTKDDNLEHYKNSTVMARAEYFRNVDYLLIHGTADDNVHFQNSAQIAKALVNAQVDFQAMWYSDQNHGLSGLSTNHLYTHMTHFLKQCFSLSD
Kind of assay: FAP inhibition, fluorogenic substrate Z-Gly-Pro-AMC. Put shortly:
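Eight-point compound dilutions (≤0.1% DMSO) were incubated at 25° C with 10 ng recombinant human FAP in Tris pH 7.5/1 M NaCl/BSA buffer and Z-Gly-Pro-AMC. Inhibition was taken as % drop in fluorescence rate (380/460 nm) against uninhibited control; IC50 came from a four-parameter logistic fit.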

The next assay concerns the target T2, recombinant human DPP8 (Homo sapiens, UniProt Q6V1X1).
T2 construct: purchased PBS Bioscience
Kind of assay: DPP8 inhibition, fluorogenic substrate Z-Ala-Pro-AMC. Put shortly: (§1)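 Inhibitors are titrated in an 8-point series into the enzyme's assay buffer (DMSO no more than 0.5%). Substrate cleavage at 25 °C is followed by fluorescence, excitation 380 nm and emission 460 nm. IC50 values come from a four-variable logistic model.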

Another assay has as its target T3, recombinant human DPP7 (Homo sapiens, UniProt Q9UHL4).
T3 construct: purchased R&D Systems
Kind of assay: DPP7 inhibition, fluorogenic substrate Lys-Pro-AMC. Put shortly: as §1

The next assay has as its target T4, recombinant human DPP9 (Homo sapiens, UniProt Q86TI2).
T4 construct: purchased R&D Systems
Kind of assay: DPP9 inhibition, fluorogenic substrate H-Gly-Pro-AMC. Put shortly:
as §1

A further assay has as its target T5, recombinant human PREP (Homo sapiens, UniProt P48147).
T5 construct: purchased R&D System
T5 sequence (P48147 1-710): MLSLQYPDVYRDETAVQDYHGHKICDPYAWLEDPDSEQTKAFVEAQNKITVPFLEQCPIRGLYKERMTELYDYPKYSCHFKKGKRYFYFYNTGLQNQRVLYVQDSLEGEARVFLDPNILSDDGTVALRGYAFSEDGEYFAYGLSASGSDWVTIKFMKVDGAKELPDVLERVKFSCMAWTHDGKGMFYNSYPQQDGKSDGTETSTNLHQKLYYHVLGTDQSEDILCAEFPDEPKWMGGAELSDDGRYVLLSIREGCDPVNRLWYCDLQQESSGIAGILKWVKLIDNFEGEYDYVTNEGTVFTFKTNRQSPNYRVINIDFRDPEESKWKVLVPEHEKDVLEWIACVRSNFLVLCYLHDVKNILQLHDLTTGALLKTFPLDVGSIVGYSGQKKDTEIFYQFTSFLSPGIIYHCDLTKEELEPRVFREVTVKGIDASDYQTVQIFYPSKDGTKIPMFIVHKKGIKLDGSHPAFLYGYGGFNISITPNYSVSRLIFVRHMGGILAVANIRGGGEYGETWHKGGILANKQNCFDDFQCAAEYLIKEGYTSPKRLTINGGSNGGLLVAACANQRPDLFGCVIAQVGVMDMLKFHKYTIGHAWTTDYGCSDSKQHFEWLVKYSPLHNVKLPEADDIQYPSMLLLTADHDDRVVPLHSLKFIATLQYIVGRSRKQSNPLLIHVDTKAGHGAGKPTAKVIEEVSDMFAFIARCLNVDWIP
Kind of assay: PREP inhibition, fluorogenic substrate Z-Gly-Pro-AMC. The following applies: Inhibitory Activity (IC50, nM) PREP. Put shortly: as §1

Where [1] appears, read: recombinant human FAP, substrate Z-Gly-Pro-AMC.
Where [2] appears, read: 25° C., H-Gly-Pro-AMC substrate.
Setting [3] is: 25° C., Z-Gly-Pro-AMC substrate.
[4] abbreviates: 25° C., Z-Ala-Pro-AMC substrate.

T2 sequence (Q6V1X1 whole entry): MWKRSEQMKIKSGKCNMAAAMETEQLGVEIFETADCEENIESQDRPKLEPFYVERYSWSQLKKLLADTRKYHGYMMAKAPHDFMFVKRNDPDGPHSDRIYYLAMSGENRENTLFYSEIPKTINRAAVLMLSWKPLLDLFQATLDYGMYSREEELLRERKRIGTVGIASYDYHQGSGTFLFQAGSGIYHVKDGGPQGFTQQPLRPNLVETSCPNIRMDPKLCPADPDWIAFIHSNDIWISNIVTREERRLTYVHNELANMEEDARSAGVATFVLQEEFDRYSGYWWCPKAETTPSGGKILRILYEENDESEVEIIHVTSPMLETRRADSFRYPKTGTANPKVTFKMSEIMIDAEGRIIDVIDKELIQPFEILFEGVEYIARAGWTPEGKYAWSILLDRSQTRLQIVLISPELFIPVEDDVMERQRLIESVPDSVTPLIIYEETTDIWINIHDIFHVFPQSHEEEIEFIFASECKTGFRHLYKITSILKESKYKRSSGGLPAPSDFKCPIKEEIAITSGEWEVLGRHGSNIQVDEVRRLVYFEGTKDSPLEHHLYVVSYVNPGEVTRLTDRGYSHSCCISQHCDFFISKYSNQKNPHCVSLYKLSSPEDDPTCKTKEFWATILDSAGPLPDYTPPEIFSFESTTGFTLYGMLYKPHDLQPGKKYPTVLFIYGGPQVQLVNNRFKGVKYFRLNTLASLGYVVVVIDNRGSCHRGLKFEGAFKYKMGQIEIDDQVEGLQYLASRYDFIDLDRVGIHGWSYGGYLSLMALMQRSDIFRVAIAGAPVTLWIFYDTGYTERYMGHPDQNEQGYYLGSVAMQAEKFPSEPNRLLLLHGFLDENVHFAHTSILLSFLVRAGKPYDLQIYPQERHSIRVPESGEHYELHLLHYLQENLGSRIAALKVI
T4 sequence (Q86TI2 whole entry): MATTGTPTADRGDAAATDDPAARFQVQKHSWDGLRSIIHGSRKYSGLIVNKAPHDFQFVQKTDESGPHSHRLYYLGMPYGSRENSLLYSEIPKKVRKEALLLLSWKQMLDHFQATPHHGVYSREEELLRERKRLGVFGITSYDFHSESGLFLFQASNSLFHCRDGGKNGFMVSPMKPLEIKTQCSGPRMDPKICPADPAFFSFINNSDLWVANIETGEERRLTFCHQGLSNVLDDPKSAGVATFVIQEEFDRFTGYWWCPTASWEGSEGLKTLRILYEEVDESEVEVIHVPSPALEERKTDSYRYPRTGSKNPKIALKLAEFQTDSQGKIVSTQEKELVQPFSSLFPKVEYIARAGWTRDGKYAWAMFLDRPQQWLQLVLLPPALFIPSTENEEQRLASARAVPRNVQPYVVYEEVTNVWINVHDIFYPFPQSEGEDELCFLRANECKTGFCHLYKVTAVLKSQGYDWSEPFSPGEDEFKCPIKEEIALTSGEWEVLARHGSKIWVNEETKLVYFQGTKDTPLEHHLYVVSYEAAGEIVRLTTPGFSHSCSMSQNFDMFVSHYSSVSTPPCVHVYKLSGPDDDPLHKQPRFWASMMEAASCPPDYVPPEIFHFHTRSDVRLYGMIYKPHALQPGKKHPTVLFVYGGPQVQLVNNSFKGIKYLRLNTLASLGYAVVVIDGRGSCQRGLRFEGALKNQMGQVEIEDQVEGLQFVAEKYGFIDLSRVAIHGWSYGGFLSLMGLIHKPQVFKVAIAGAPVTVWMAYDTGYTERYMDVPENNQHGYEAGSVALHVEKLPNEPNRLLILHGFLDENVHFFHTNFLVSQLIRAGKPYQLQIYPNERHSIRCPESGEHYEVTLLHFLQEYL
DPP4, sequence (P27487 whole entry): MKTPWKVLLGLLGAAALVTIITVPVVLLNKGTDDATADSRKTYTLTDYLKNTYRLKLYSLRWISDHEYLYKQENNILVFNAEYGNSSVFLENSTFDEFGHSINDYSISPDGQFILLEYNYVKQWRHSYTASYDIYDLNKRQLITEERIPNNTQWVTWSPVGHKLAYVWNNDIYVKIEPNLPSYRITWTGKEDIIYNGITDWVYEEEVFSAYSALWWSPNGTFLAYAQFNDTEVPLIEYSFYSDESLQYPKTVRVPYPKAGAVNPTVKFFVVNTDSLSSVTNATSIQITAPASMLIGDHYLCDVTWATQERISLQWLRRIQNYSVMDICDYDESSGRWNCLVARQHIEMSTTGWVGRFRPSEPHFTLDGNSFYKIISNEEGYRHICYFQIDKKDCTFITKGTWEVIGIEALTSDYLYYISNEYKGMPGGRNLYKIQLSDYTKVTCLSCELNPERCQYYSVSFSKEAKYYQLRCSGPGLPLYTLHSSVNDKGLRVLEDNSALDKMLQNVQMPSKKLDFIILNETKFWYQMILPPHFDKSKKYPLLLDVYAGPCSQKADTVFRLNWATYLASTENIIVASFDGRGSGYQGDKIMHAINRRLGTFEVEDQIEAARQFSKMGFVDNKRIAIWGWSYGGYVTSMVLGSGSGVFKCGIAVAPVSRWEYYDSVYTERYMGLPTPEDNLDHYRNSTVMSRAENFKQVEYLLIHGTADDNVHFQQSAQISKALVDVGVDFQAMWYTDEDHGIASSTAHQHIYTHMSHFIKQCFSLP

A word on the IC50: it is the point on the concentration scale where inhibition reaches its midpoint. As for `CN(c1ccc2ccncc2c1)C1CCN(CC(=O)N2C[C@@H](F)C[C@H]2C#N)CC1` [Example 319, (2S,4S)-4-fluoro-1-[2-[4-[7-isoquinolyl(methyl)amino]-1-piperidyl]acetyl]pyrrolidine-2-carbonitrile], the half-maximal inhibitory concentration (IC50) was > 10 µM at DPP4 (recombinant human DPP4); 0.0018 µM at Recombinant human FAP (setting [1]); 3.82 µM on recombinant human DPP8 (recombinant human DPP8); 1.32 µM on recombinant human DPP7 (recombinant human DPP7); 5.04 µM at recombinant human DPP9 (recombinant human DPP9); 503 nM on recombinant human PREP (recombinant human PREP).

For the compound `CN(c1ccc2cccnc2c1)C1CCN(CC(=O)N2CCC[C@H]2C#N)CC1` [Example 311, (2S)-1-[2-[4-[methyl(7-quinolyl)amino]-1-piperidyl]acetyl]pyrrolidine-2-carbonitrile], the IC50 was > 10 µM at DPP4 (recombinant human DPP4); 0.014 µM at Recombinant human FAP (setting [1]); > 100 µM at recombinant human DPP8 (recombinant human DPP8); 2.49 µM on recombinant human DPP7 (recombinant human DPP7); 96.9 µM on recombinant human DPP9 (recombinant human DPP9); 4350 nM on recombinant human PREP (recombinant human PREP).

`N#C[C@@H]1CC(F)(F)CN1C(=O)CN1CC[C@H](Nc2cccc3sccc23)C1` [Example 9, (S)-1-(2-((S)-3-(benzo[b]thiophen-4-ylamino)pyrrolidin-1-yl)acetyl)-4,4-difluoropyrrolidine-2-carbonitrile]: the IC50 was > 1 µM against DPP4 (setting [2]); 0.0011 µM on Recombinant human FAP (setting [3]); 0.213 µM at recombinant human DPP8 (setting [4]); 0.0751 µM on recombinant human DPP7; 12.3 µM on recombinant human DPP9 (setting [2]); > 100000 nM at recombinant human PREP (setting [3]).

With `N#C[C@@H]1CCCN1C(=O)CN1CC[C@H](NC(=O)c2csc3ccccc23)C1` [Example 41, N—((S)-1-(2-((S)-2-cyanopyrrolidin-1-yl)-2-oxoethyl)pyrrolidin-3-yl)benzo[b]thiophene-3-carboxamide], the IC50 against DPP4 (setting [2]) is > 1 µM; on Recombinant human FAP (setting [3]), 0.0037 µM; at recombinant human DPP8 (setting [4]), 62.1 µM; at recombinant human DPP7 it was 4.13 µM; at recombinant human DPP9 (setting [2]) it was > 100 µM; on recombinant human PREP (setting [3]) it was 3190 nM.

Consider `N#C[C@@H]1CCCN1C(=O)CN1CC[C@H](Nc2ccc3ncccc3c2)C1` [Example 230, (2S)-1-[2-[(3S)-3-(6-quinolylamino)pyrrolidin-1-yl]acetyl]pyrrolidine-2-carbonitrile], for which the IC50 on DPP4 (recombinant human DPP4) was > 10 µM; on Recombinant human FAP (setting [1]), 0.0093 µM; on recombinant human DPP8 (recombinant human DPP8) it was > 100 µM; at recombinant human DPP7 (recombinant human DPP7), 1.36 µM; on recombinant human DPP9 (recombinant human DPP9) it was 17.6 µM; on recombinant human PREP (recombinant human PREP) it was 8770 nM.

For `COc1cc(NC2CCN(CC(=O)N3C[C@@H](F)C[C@H]3C#N)CC2)c2cccnc2c1` [Example 133, (2S,4S)-4-fluoro-1-(2-(4-((7-methoxyquinolin-5-yl)amino)piperidin-1-yl)acetyl)pyrrolidine-2-carbonitrile], the IC50 at DPP4 (setting [2]) came to 6.02 µM; on Recombinant human FAP (setting [3]), 0.00237 µM; at recombinant human DPP8 (setting [4]), 6.48 µM; at recombinant human DPP7, 0.153 µM; on recombinant human DPP9 (setting [2]), 6 µM; on recombinant human PREP (setting [3]) it was 2600 nM.

A word on the inhibition: it is the share of the control response that was lost under treatment. Regarding `N#C[C@@H]1CC(F)(F)CN1C(=O)CN1CCC(Nc2cccc3ncccc23)CC1` [Example 114, (S)-4,4-difluoro-1-(2-(4-(quinolin-5-ylamino)piperidin-1-yl)acetyl)pyrrolidine-2-carbonitrile], the inhibition at 1 µM at DPP4 came to 15.7%. Moreover, the IC50 on Recombinant human FAP (setting [3]) was 0.00094 µM; at recombinant human DPP8 (setting [4]), 1.53 µM; on recombinant human DPP7 it was < 0.03 µM; on recombinant human DPP9 (setting [2]), 3.4 µM; on recombinant human PREP (setting [3]) it was 31000 nM.

In the case of `Cc1ccc2ncccc2c1NC1CCN(CC(=O)N2CCC[C@H]2C#N)CC1` [Example 122, (S)-1-(2-(4-((6-methylquinolin-5-yl)amino)piperidin-1-yl)acetyl)pyrrolidine-2-carbonitrile], the IC50 against DPP4 (setting [2]) was > 10 µM; at Recombinant human FAP (setting [3]), 0.445 µM; on recombinant human DPP8 (setting [4]) it was > 100 µM; on recombinant human DPP7, > 100 µM; at recombinant human DPP9 (setting [2]) it was > 100 µM; on recombinant human PREP (setting [3]) it was 23700 nM.

`N#C[C@@H]1C[C@H](F)CN1C(=O)CN1CCC(Nc2cccc3cnccc23)CC1` [Example 340, (2S,4S)-4-fluoro-1-[2-[4-(5-isoquinolylamino)-1-piperidyl]acetyl]pyrrolidine-2-carbonitrile]: the 50% inhibitory concentration (IC50) on DPP4 (recombinant human DPP4) worked out at 6.5 µM; at Recombinant human FAP (setting [1]) it was 0.0051 µM; on recombinant human DPP8 (recombinant human DPP8), 2.4 µM; on recombinant human DPP7 (recombinant human DPP7), 0.523 µM; on recombinant human DPP9 (recombinant human DPP9), 5.31 µM; at recombinant human PREP (recombinant human PREP), 7850 nM.

`N#C[C@@H]1CCCN1C(=O)CN1CC[C@H](NC(=O)c2coc3cc(F)ccc23)C1` [Example 44, N—((S)-1-(2-((S)-2-cyanopyrrolidin-1-yl)-2-oxoethyl)pyrrolidin-3-yl)-6-fluorobenzofuran-3-carboxamide]: the inhibition at 1 µM on DPP4 was 1.4%. The IC50 at Recombinant human FAP (setting [3]) is 0.00507 µM; at recombinant human DPP8 (setting [4]), 46.2 µM; at recombinant human DPP7, 1.72 µM; at recombinant human DPP9 (setting [2]), > 100 µM; at recombinant human PREP (setting [3]), 12100 nM.

Consider `N#C[C@@H]1CCCN1C(=O)CN1CC[C@H](Nc2ccnc3c(C(F)(F)F)cccc23)C1` [Example 270, (2S)-1-[2-[(3S)-3-[[8-(trifluoromethyl)-4-quinolyl]amino]pyrrolidin-1-yl]acetyl]pyrrolidine-2-carbonitrile], for which the IC50 on DPP4 (recombinant human DPP4) was > 10 µM; on Recombinant human FAP (setting [1]), 0.0013 µM; on recombinant human DPP8 (recombinant human DPP8), 44 µM; on recombinant human DPP7 (recombinant human DPP7), 0.591 µM; at recombinant human DPP9 (recombinant human DPP9) it was 19.2 µM; at recombinant human PREP (recombinant human PREP), 10900 nM.

Turning to `N#C[C@@H]1CC(F)(F)CN1C(=O)CN1CC[C@H](Oc2cccc3ncccc23)C1` [Example 105, (S)-4,4-difluoro-1-(2-((S)-3-(quinolin-5-yloxy)pyrrolidin-1-yl)acetyl)pyrrolidine-2-carbonitrile], the IC50 against DPP4 (setting [2]) was > 1 µM; on Recombinant human FAP (setting [3]) it was 0.00121 µM; on recombinant human DPP8 (setting [4]) it was 11.8 µM; at recombinant human DPP7, 0.0635 µM; at recombinant human DPP9 (setting [2]) it was 12.5 µM; at recombinant human PREP (setting [3]), 5230 nM.

For `COc1ccc2c(OC3CCN(CC(=O)N4C[C@@H](F)C[C@H]4C#N)CC3)ccnc2c1` [Example 129, (2S,4S)-4-fluoro-1-(2-(4-((7-methoxyquinolin-4-yl)oxy)piperidin-1-yl)acetyl)pyrrolidine-2-carbonitrile], the IC50 against DPP4 (setting [2]) is > 10 µM; on Recombinant human FAP (setting [3]) it was 0.00266 µM; at recombinant human DPP8 (setting [4]), 9.84 µM; at recombinant human DPP7 it was 0.642 µM; on recombinant human DPP9 (setting [2]), 4.85 µM; on recombinant human PREP (setting [3]) it was 161 nM.

As for `N#C[C@@H]1CCCN1C(=O)CN1CC[C@H](NC(=O)c2coc3cccc(O)c23)C1` [Example 48, N—((S)-1-(2-((S)-2-cyanopyrrolidin-1-yl)-2-oxoethyl)pyrrolidin-3-yl)-4-hydroxybenzofuran-3-carboxamide], the inhibition at 1 µM at DPP4 amounted to 3.6%. Moreover, the IC50 was 0.00223 µM at Recombinant human FAP (setting [3]); 12 µM at recombinant human DPP8 (setting [4]); 0.762 µM on recombinant human DPP7; > 100 µM at recombinant human DPP9 (setting [2]); 6750 nM on recombinant human PREP (setting [3]).
